Source: article PMC6713104, “New peptide derived antimalaria and antimicrobial agents bearing sulphonamide moiety” (Journal of Enzyme Inhibition and Medicinal Chemistry, 2019)
Values after ≈ are worked out from the molar mass of the structure shown. Like-named read-outs stand apart in the source and are kept apart here.

Columns and labels:
Liver function tests = assay type: in vivo; parameters: Glucose: unit not given here; settings: mice, 10 mg/kg
From the text: Twenty-four hours before the injecting the compounds, the blood sample of five mice was taken and it was also taken after the last day of treatment, the animals were sacrificed by cervical dislocation and the blood samples were collected by heart puncture. The blood samples for haematological parameters (red blood cell (RBC) count, white blood cell (WBC) count, packed cell volume (PCV), and hemoglobin (HGB)) were collected into EDTA bottles and analyzed using an automated machine (Automated CBC Analyzer: Sysmex KX-21). The liver function tests carried out with the blood of the rats fed with the sulfonamide derivatives were aspartate aminotransperase (AST), alanine transaminase (ALT) and alkaline phosphatase (ALP). Standard laboratory procedure according to Reitman and Franke[32] was used for the determination of parameters.

B. subtilis = experiment: Antimicrobial MIC, agar cup diffusion; assay type: cell-based; settings: Bacillus subtilis; B. subtilis; read-out: MIC (minimum inhibitory concentration)
Haematological analysis = assay type: in vivo, mice
From the text: (§1) Twenty-four hours before the injecting the compounds, the blood sample of five mice was taken and it was also taken after the last day of treatment, the animals were sacrificed by cervical dislocation and the blood samples were collected by heart puncture. The blood samples for haematological parameters (red blood cell (RBC) count, white blood cell (WBC) count, packed cell volume (PCV), and hemoglobin (HGB)) were collected into EDTA bottles and analyzed using an automated machine (Automated CBC Analyzer: Sysmex KX-21).
The blood samples for haematological parameters (red blood cell (RBC) count, white blood cell (WBC) count, packed cell volume (PCV), and haemoglobin (HGB)) were collected into EDTA bottles and analyzed using an automated machine (Automated CBC Analyzer: Sysmex KX-21) (Table 8). From the analysis, even though there is a decrease in the value of RBC, PCV and HB, it is observed that there is no significant changes in the parameters that were analyzed for the control and the test compounds.

E. coli = experiment: Antimicrobial MIC, agar cup diffusion; assay type: cell-based; settings: Escherichia coli, read-out: MIC (minimum inhibitory concentration)
[1] = Renal or kidney function test; assay type: in vivo; settings: mice, 10 mg/kg
From the text: as §1, with “KX-21). Kidney function tests carried out with the blood of the rats fed with the sulfonamide derivatives were, creatinine and albunim. The method reported by Kaplan and Tengv[33] was used in the determination of creatinine.” for “KX-21).”

S. typhi = experiment: Antimicrobial MIC, agar cup diffusion; assay type: cell-based; settings: Salmonella enterica, read-out: MIC (minimum inhibitory concentration)
C. albicans = experiment: Antimicrobial MIC, agar cup diffusion; assay type: cell-based; settings: Candida albicans, read-out: MIC (minimum inhibitory concentration)
K. pneumoniae = experiment: Antimicrobial MIC, agar cup diffusion; assay type: cell-based; settings: Klebsiella pneumoniae, read-out: MIC (minimum inhibitory concentration)
A. niger = experiment: Antimicrobial MIC, agar cup diffusion; assay type: cell-based; settings: Aspergillus niger, read-out: MIC (minimum inhibitory concentration)
P. falciparum strain W2 = experiment: In vitro antimalarial assay; assay type: cell-based; settings: for MIC: Plasmodium falciparum, W2, P. falciparum
[2] = tested on: Plasmodium berghei infection in mice; experiment: In vivo antimalaria test; settings: P. berghei infected mice; for inhibition in vivo at 100 mg/kg / inhibition in vivo at 200 mg/kg: Plasmodium berghei, oral
Procedure: Experimental Design and Treatment of Mice. Methods of Peter et al.[30] and Kalra et al.[31] for antiplasmodial assay against Plasmodium berghei infection in mice with some modifications were employed. About eighty infected mice were randomly divided into five groups, each having […] mice. The inoculum was prepared from a donor mouse with rising parasitemia of 60.42%. After 7 days of infection, animals begin to receive treatment (100 and 200 mg/kg b wt.) of the synthesized compounds (7a–7n) for 12 days with constant check of the percentage of parasitemia after a 4-day interval. Artemisinin (100 and 200 mg/kg body weight.) was given to the other mice in group three as positive control, group four was not treated and group five was not infected. All the compounds and the drugs were given orally by using a standard intragastric tube. For all parasitemia determination, blood samples were collected from tail snip of each mouse and thin smears prepared and stained with 10% Giemsa solution. The uniform fields of each stained slide (for each mouse) were examined under microscope with an oil immersion objective of 100X magnification power and average percent of parasitemia was determined.
To determine the in vivo activity, the compounds were tested against P. berghei NK(65 Strain) infection mice., the animals were obtained from Nigeria institute for Trypanosoma and onchocercarioses Research (NTIR) Vom, Plateau State Nigeria. The permission and approval for the use of animals in this experiment were granted by the Animal Ethics Committee, Federal College of Vetrenary Medical Laboratory, Vom, Plateau State. Method of Peter et al.[30], for antiplasmodial assay against P. berghei in mice with some modification were employed. Artemisimin was used as treated control of the experiments. The percentage inhibition of parasite multiplication was calculated comparing the treated group with untreated group by means of the following formula[39] [(A − B)/A] × 100; where A = parasitaemia in the untreated group and B = parasitemia in the test group. […] Most of the compounds were active against P. berghei after 7 days post-infection by reducing the parasiteamia by at least 40% when in a dose of 100 mg/kg (Table 5). The inhibition of parasitaemia increased on 12th day post infection for almost all the compounds. […] However in consideration of the compounds ability to inhibit parasitaemia to the control drug. […] These compounds should be considered for further studies because of its promising activities.

[3] = 48 h, >99% of parasites inhibited from developing to schizonts
[4] = 168 h, read-out: % inhibition 7 days post-treatment (100 mg/kg), day 7
[5] = 168 h, read-out: % inhibition 7 days post-treatment (200 mg/kg), day 7
[6] = 288 h, read-out: % inhibition 12 days post-treatment (100 mg/kg), day 12
[7] = 288 h, read-out: % inhibition 12 days post-treatment (200 mg/kg), day 12

SMILES: Cc1ccc(S(=O)(=O)NC(C)C(=O)NCC(=O)Nc2cccc(Cl)c2)cc1 (stereo not shown) [Compound 7h, N-(2-((3-chlorophenyl)amino)-2-oxoethyl)-2–(4-methylphenylsulfonamido)propanamide]
- ALT (Liver function tests; After): 24.5 µ/L
- AST (Liver function tests; After): 69.5 µ/L
- Bilirubin (Liver function tests; After): 0.3 mg/dL
- Glucose (Liver function tests; After): 5.5
- T.P. (Liver function tests; After): 5.5 g/dL
- ALT (Liver function tests; Before): 25.4 µ/L
- AST (Liver function tests; Before): 65.0 µ/L
- Bilirubin (Liver function tests; Before): 0.4 mg/dL
- Glucose (Liver function tests; Before): 5.9
- T.P. (Liver function tests; Before): 6.0 g/dL
- MIC (B. subtilis): 214 µg/mL (≈ 522 µM)
- HB (Haematological analysis; After treatment): 10.0 g/dL
- PCV (Haematological analysis; After treatment): 34%
- RBC (Haematological analysis; After treatment): 5.9 × 10^6 mm^3
- WBC (Haematological analysis; After treatment): 9.3 × 10^3 mm^3
- HB (Haematological analysis; Before treatment): 13.4 g/dL
- PCV (Haematological analysis; Before treatment): 39%
- RBC (Haematological analysis; Before treatment): 7.3 × 10^6 mm^3
- WBC (Haematological analysis; Before treatment): 9.4 × 10^3 mm^3
- MIC (E. coli): 239 µg/mL (≈ 583 µM)
- Albumin ([1]; After): 3.9 g/dL
- Creatinine ([1]; After): 0.3 mg/dL
- Albumin ([1]; Before): 3.9 g/dL
- Creatinine ([1]; Before): 0.3 mg/dL
- MIC (S. typhi): 1290 µg/mL (≈ 3140 µM)
- MIC (C. albicans): 34 µg/mL (≈ 82.9 µM)
- MIC (K. pneumoniae): 5250 µg/mL (≈ 12800 µM)
- MIC (A. niger): 31.6 µg/mL (≈ 77.1 µM)
- MIC (P. falciparum strain W2): 50 µM (≈ 20.5 µg/mL)
- MIC (P. falciparum strain W2; [3]): 0.03 µM (≈ 0.0123 µg/mL)
- in vitro antimalarial activity relative to other compounds and standard drugs (P. falciparum strain W2; in words): best activity
- ability to inhibit parasitaemia compared to the control drug ([2]; in words): almost the same or better activity compared to the artemisinin
- inhibition in vivo at 100 mg/kg [2, 4]: 61.4%
- inhibition in vivo at 200 mg/kg [2, 5]: 49.9%
- inhibition in vivo at 100 mg/kg [2, 6]: 57.8%
- inhibition in vivo at 200 mg/kg [2, 7]: 55.2%
- melting point: 120 to 122 °C

SMILES: Cc1ccc(NC(=O)CNC(=O)C(C)NS(=O)(=O)c2ccc(C)cc2)cc1 (stereo not shown) [Compound 7l, 2–(4-methylphenylsulfonamido)-N-(2-oxo-2-(p-tolylamino)ethyl)propanamide]
- MIC (B. subtilis): 245 µg/mL (≈ 629 µM)
- MIC (E. coli): 169 µg/mL (≈ 434 µM)
- MIC (S. typhi): 57 µg/mL (≈ 146 µM)
- MIC (C. albicans): 174 µg/mL (≈ 447 µM)
- MIC (K. pneumoniae): 107 µg/mL (≈ 275 µM)
- MIC (A. niger): 123 µg/mL (≈ 316 µM)
- MIC (P. falciparum strain W2; [3]): 0.93 µM (≈ 0.362 µg/mL)
- inhibition in vivo at 100 mg/kg [2, 4]: 38.2%
- inhibition in vivo at 200 mg/kg [2, 5]: 60.7%
- inhibition in vivo at 100 mg/kg [2, 6]: 41.7%
- inhibition in vivo at 200 mg/kg [2, 7]: 74.6%
- melting point: 120 to 122 °C
